Results as given in patent publication US20220117913A1, “DEZOCINE DERIVATIVE AND MEDICAL USE THEREOF” (YANGTZE RIVER PHARMACEUTICAL GROUP CO., LTD., priority 2019, published 2022).
Where a name gives a salt, the structure may show the parent alone.

Experiments:
δ opioid receptor = δ opioid receptor (Homo sapiens, UniProt P41143); experiment: radioisotope ligand competitive binding assay, δ opioid receptor (DOR); conditions: [3H]-DADLE 0.5 nM, cell membrane of stably transfected cells; read-out: δ IC50
Source text: (§1) Through the radioisotope ligand competitive binding assay, IC50 of the compound was used as an indicator to evaluate the affinity of the compound to κ and δ opioid receptors.
(§2) (1) Reagents • The cell membrane was extracted from stably transfected cells constructed by WuXi AppTec, Shanghai. • 3H-diprenophrine (PerkinElmer, Cat: NET1121250UC, Lot: 2143599) • 3H-DAMGO (PerkinElmer, Cat: NET902250UC, Lot: 2139100) • 3H-DADLE (PerkinElmer, Cat: NET648250UC, Lot: 2060549) • Tris base (Sigma, Cat: T6066-1KG), prepare 1M stock and adjust pH to 7.4. • 0.5M EDTA (Invitrogen, Cat: 15575-038) • 1M MgCl2 (Sigma, Cat: M1028-100 ml) • PEI (Poly ethyleneimine) (Sigma, Cat: P3143) • Microscint 20 cocktail (PerkinElmer, Cat: 6013329) • Naltrindole (Sigma, Cat; N115) • (±)trans-U-50488 (Sigma, Cat: D8040) • DAMGO (Sigma, Cat: E7384)
(§3) (1) 1 μL of the test compounds, negative control (i.e., DMSO) and positive control (i.e., non-specific binding well compound), after being prepared, were respectively transferred to a 96-well plate;
(§4) (2) 99 μL of the prepared opioid receptor membrane protein was added to each well of the 96-well plate containing 1 μL of the compound;
(§5) (3) 100 μL of 2× corresponding radioisotope ligand was added to each well;
(§6) (4) The plate was placed on a shake and incubated at room temperature for 1 hour;
(§7) (5) Each well of the GF/C plate was soaked with 50 μL of 0.3% PEI for at least half an hour in advance;
(§8) (6) After the incubation was finished, the GF/C plate was washed with plate washing buffer once by using Harvest. Then, the cell membranes in the 96-well plate were collected onto the GF/C plate using Harvest, and the GF/C plate was washed four times with the plate washing buffer, each time about 250 μL;
(§9) (7) The GF/C plate was placed in an oven at 50° C. for 1 hour;
(§10) (8) The bottom of the GF/C plate was sealed with a plate sealing film, 50 μL of Microscint-20 scintillation fluid was added to each well, and then the plate was sealed with a transparent sealing film for microplate;
(§11) (9) The radioactive signal value CPM was read using MicroBeta2;
(§12) (10) The data was analyzed with Prism 5. The percentage inhibition rate was calculated with the calculation formula: % Inh=(1-Background subtracted Assay value/Background subtracted HC value)*100.

κ opioid receptor = κ opioid receptor (Homo sapiens, UniProt P41145); experiment: radioisotope ligand competitive binding assay, κ opioid receptor (KOR); conditions: [3H]Diprenorphine 0.3 nM, cell membrane of stably transfected cells; read-out: κ IC50
Source text: as §1, §2, §3, §4, §5, §6, §7, §8, §9, §10, §11, §12

μ opioid receptor = μ opioid receptor (Homo sapiens, UniProt P35372); experiment: radioisotope ligand competitive binding assay, μ opioid receptor (MOR); conditions: [3H]DAMGO 0.5 nM, cell membrane of stably transfected cells; read-out: μ IC50

SMILES	IC50 (δ opioid receptor)	IC50 (κ opioid receptor)	IC50 (μ opioid receptor)
COc1ccc2c(c1)[C@@]1(C)CCCCC[C@@H](C2)[C@@H]1NCC1CC1 [Hydrochloride of compound 7]	> 10000 nM	100 to 1000 nM	100 to 1000 nM
COc1ccc2c(c1)[C@@]1(C)CCCCC[C@@H](C2)[C@@H]1N1CCCC1 [Hydrochloride of compound 12]	> 10000 nM	> 10000 nM	1000 to 10000 nM
COc1ccc2c(c1)[C@@]1(C)CCCCC[C@@H](C2)[C@@H]1NCCc1ccc(Cl)c(Cl)c1 [Hydrochloride of compound 10]	> 10000 nM	1000 to 10000 nM	100 to 1000 nM
CC(C)N[C@H]1[C@H]2CCCCC[C@]1(C)c1cc(O)ccc1C2 [Hydrochloride of compound 23]	1000 to 10000 nM	100 to 1000 nM	10 to 100 nM
C[C@@]12CCCCC[C@@H](Cc3ccc(O)cc31)[C@@H]2NCCc1ccc(Cl)c(Cl)c1 [Hydrochloride of compound 27]	100 to 1000 nM	10 to 100 nM	10 to 100 nM
C[C@@]12CCCCC[C@@H](Cc3ccc(OCc4ccccc4)cc31)[C@@H]2NCc1ccccc1 [Hydrochloride of compound 39]	100 to 1000 nM	100 to 1000 nM	< 10 nM
COc1ccc2c(c1)[C@@]1(C)CCCCC[C@@H](C2)[C@@H]1NCCc1ccccc1 [Hydrochloride of compound 8]	> 10000 nM	> 10000 nM	10 to 100 nM
CN(CCc1ccccc1)[C@H]1[C@H]2CCCCC[C@]1(C)c1cc(O)ccc1C2 [Hydrochloride of compound 30]	10 to 100 nM	10 to 100 nM	< 10 nM
CCCCN(C)[C@H]1[C@H]2CCCCC[C@]1(C)c1cc(O)ccc1C2 [Hydrochloride of compound 32]	10 to 100 nM	10 to 100 nM	< 10 nM
COc1ccc2c(c1)[C@@]1(C)CCCCC[C@@H](C2)[C@@H]1N(C)CCc1ccccc1 [Hydrochloride of compound 13]	> 10000 nM	> 10000 nM	100 to 1000 nM
CCCN[C@H]1[C@H]2CCCCC[C@]1(C)c1cc(OC)ccc1C2 [Hydrochloride of compound 3]	> 10000 nM	100 to 1000 nM	10 to 100 nM
COc1ccc2c(c1)[C@@]1(C)CCCCC[C@@H](C2)[C@@H]1NCc1ccccc1 [Hydrochloride of compound 9]	1000 to 10000 nM	100 to 1000 nM	100 to 1000 nM
C[C@@]12CCCCC[C@@H](Cc3ccc(O)cc31)[C@@H]2NCC1CC1 [Hydrochloride of compound 24]	1000 to 10000 nM	100 to 1000 nM	10 to 100 nM
CCCCN[C@H]1[C@H]2CCCCC[C@]1(C)c1cc(OC)ccc1C2 [Hydrochloride of compound 4]	1000 to 10000 nM	1000 to 10000 nM	10 to 100 nM
CN[C@H]1[C@H]2CCCCC[C@]1(C)c1cc(OCc3ccccc3)ccc1C2 [Hydrochloride of compound 38]	1000 to 10000 nM	1000 to 10000 nM	10 to 100 nM
CN[C@H]1[C@H]2CCCCC[C@]1(C)c1cc(OC)ccc1C2 [Hydrochloride of compound 1]	> 10000 nM	1000 to 10000 nM	100 to 1000 nM
COc1ccc2c(c1)[C@@]1(C)CCCCC[C@@H](C2)[C@@H]1N(C)Cc1ccccc1 [Hydrochloride of compound 17]	> 10000 nM	> 10000 nM	100 to 1000 nM
CCCCCN(C)[C@H]1[C@H]2CCCCC[C@]1(C)c1cc(O)ccc1C2 [Hydrochloride of compound 33]	100 to 1000 nM	100 to 1000 nM	< 10 nM
C[C@@]12CCCCC[C@@H](Cc3ccc(O)cc31)[C@@H]2N1CCCC1 [Hydrochloride of compound 29]	1000 to 10000 nM	1000 to 10000 nM	10 to 100 nM
C[C@@]12CCCCC[C@@H](Cc3ccc(OCc4ccccc4)cc31)[C@@H]2N [Hydrochloride of compound 36]	1000 to 10000 nM	1000 to 10000 nM	10 to 100 nM
